The text below walks through data of patent publication US7687490B2, “2-thioethenyl substituted carbapenem derivatives” (Meiji Seika Kaisha, Ltd., priority 2005, dated 2010).

Common to all, as to assay: Antimicrobial activity, MIC (Test Example 1)
Common to all, as to format: cell-based

In one test the test system is E. coli W4680. To be noted: Sensitivity Disk agar-N+5% Horse blood, inoculants 10^6 CFU/ml; for MIC: Escherichia coli, read-out: minimum inhibitory concentrations (MIC). Here is the method:
(§1) The minimum inhibitory concentrations (MIC, μg/ml) of representative compounds, among the novel carbapenem derivatives of the present invention, to various pathogenic bacteria were measured in accordance with the method described in CHEMOTHERAPY, vol. 16, No. 1, 99, 1968. The culture medium for the measurement is Sensitivity Disk agar-N+5% Horse blood, and the amount of inoculants used is 10^6 CFU/ml.

A further test deals with H. influenzae 870. As to conditions: Sensitivity Disk agar-N+5% Horse blood, inoculants 10^6 CFU/ml; for MIC: Haemophilus influenzae, read-out: minimum inhibitory concentrations (MIC). How it is done:
as §1

The subject of another test is H. influenzae PRC44. As to conditions: Sensitivity Disk agar-N+5% Horse blood, inoculants 10^6 CFU/ml; for MIC: Haemophilus influenzae, read-out: minimum inhibitory concentrations (MIC). Here is the method:
as §1

Another test has as its system H. influenzae Rd. To be noted: Sensitivity Disk agar-N+5% Horse blood, inoculants 10^6 CFU/ml; for MIC: Haemophilus influenzae, read-out: minimum inhibitory concentrations (MIC). Here is the method: as §1
In another test the test system is K. pneumoniae GN69. To be noted: Sensitivity Disk agar-N+5% Horse blood, inoculants 10^6 CFU/ml; for MIC: Klebsiella pneumoniae, read-out: minimum inhibitory concentrations (MIC). How it is done: as §1
A further test deals with M. catarrhalis W-500. As to conditions: Moraxella catarrhalis, W500, Sensitivity Disk agar-N+5% Horse blood, inoculants 10^6 CFU/ml, read-out: minimum inhibitory concentrations (MIC). Here is the method: as §1
A further test deals with S. aureus 209P JC-1. As to conditions: Sensitivity Disk agar-N+5% Horse blood, inoculants 10^6 CFU/ml; for MIC: Staphylococcus aureus, read-out: minimum inhibitory concentrations (MIC). How it is done:
as §1

In a further test the test system is S. pneumoniae 197. As to conditions: Streptococcus pneumoniae, Sensitivity Disk agar-N+5% Horse blood, inoculants 10^6 CFU/ml, read-out: minimum inhibitory concentrations (MIC). Here is the method:
as §1

For a further test, the system named is S. pneumoniae PRC53. To be noted: Sensitivity Disk agar-N+5% Horse blood, inoculants 10^6 CFU/ml; for MIC: Streptococcus pneumoniae, read-out: minimum inhibitory concentrations (MIC). Here is the method:
as §1

For another test, the system named is S. pneumoniae R6. As to conditions: Sensitivity Disk agar-N+5% Horse blood, inoculants 10^6 CFU/ml; for MIC: Streptococcus pneumoniae, read-out: minimum inhibitory concentrations (MIC). Here is the method: as §1

≈ marks a conversion by molar mass, not a printed value.

With `C[C@@H](O)[C@H]1C(=O)N2C(C(=O)[O-])=C(S/C=C\c3scnc3CO)[C@H](C)[C@H]12.[Na+]` [Example 41, Sodium (1R,5S,6S)-6-((1R)-1-hydroxyethyl)-2-[[(Z)-2-(4-hydroxymethylthiazol-5-yl)ethen-1-yl]thio]-1-methyl-1-carbapen-2-em-3-carboxylate], the MIC with E. coli W4680 came to 1 µg/mL; in the test with H. influenzae 870, 0.125 µg/mL; in the test on H. influenzae PRC44 it was 0.125 µg/mL; in the test on H. influenzae Rd, 0.031 µg/mL; in the test with K. pneumoniae GN69, 0.5 µg/mL; in the test with M. catarrhalis W-500, 0.063 µg/mL. Besides, the MIC with S. aureus 209P JC-1 came to 0.031 µg/mL; in the test on S. pneumoniae 197, 0.125 µg/mL; in the test on S. pneumoniae PRC53 it was 0.063 µg/mL; in the test on S. pneumoniae R6 it was 0.008 µg/mL.

For the molecule `C[C@@H](O)[C@H]1C(=O)N2C(C(=O)[O-])=C(S/C=C\c3ncsc3CO)[C@H](C)[C@H]12.[Na+]` [Example 78, Sodium (1R,5S,6S)-6-((1R)-1-hydroxyethyl)-2-[[(Z)-2-(5-hydroxymethylthiazol-4-yl)ethen-1-yl]thio]-1-methyl-1-carbapen-2-em-3-carboxylate], the MIC with E. coli W4680 worked out at 8 µg/mL; in the test with H. influenzae 870, 0.125 µg/mL; in the test on H. influenzae PRC44, 0.063 µg/mL; with H. influenzae Rd it was 0.031 µg/mL; in the test with K. pneumoniae GN69, 8 µg/mL; with M. catarrhalis W-500, 0.25 µg/mL. Further, the MIC in the test on S. aureus 209P JC-1 was found to be 0.031 µg/mL; in the test on S. pneumoniae 197 it was 0.25 µg/mL; in the test with S. pneumoniae PRC53 it was 0.063 µg/mL; in the test with S. pneumoniae R6, 0.008 µg/mL.

In the case of `C[C@@H](O)[C@H]1C(=O)N2C(C(=O)[O-])=C(S/C=C\c3nc(CO)cs3)[C@H](C)[C@H]12.[Na+]` [Example 44, Sodium (1R,5S,6S)-6-((1R)-1-hydroxyethyl)-2-[[(Z)-2-(4-hydroxymethylthiazol-2-yl)ethen-1-yl]thio]-1-methyl-1-carbapen-2-em-3-carboxylate], the MIC with E. coli W4680 came out at 4 µg/mL; with H. influenzae 870, 0.125 µg/mL; with H. influenzae PRC44, 0.063 µg/mL; in the test on H. influenzae Rd it was 0.031 µg/mL; with K. pneumoniae GN69, 4 µg/mL; in the test on M. catarrhalis W-500, 0.063 µg/mL. Moreover, the MIC in the test on S. aureus 209P JC-1 is 0.031 µg/mL; in the test on S. pneumoniae 197, 0.25 µg/mL; in the test on S. pneumoniae PRC53, 0.063 µg/mL; in the test on S. pneumoniae R6 it was 0.008 µg/mL.

In the case of `C[C@@H](O)[C@H]1C(=O)N2C(C(=O)[O-])=C(S/C=C/c3scnc3CO)[C@H](C)[C@H]12.[Na+]` [Example 61, Sodium (1R,5S,6S)-6-((1R)-1-hydroxyethyl)-2-[[(E)-2-(4-hydroxymethylthiazol-5-yl)ethen-1-yl]thio]-1-methyl-1-carbapen-2-em-3-carboxylate], the MIC with E. coli W4680 was 8 µg/mL; in the test on H. influenzae 870 it was 0.125 µg/mL; in the test with H. influenzae PRC44, 0.125 µg/mL; with H. influenzae Rd, 0.031 µg/mL; in the test on K. pneumoniae GN69, 8 µg/mL; in the test on M. catarrhalis W-500 it was 0.063 µg/mL. Moreover, the MIC in the test on S. aureus 209P JC-1 amounted to 0.063 µg/mL; in the test on S. pneumoniae 197, 1 µg/mL; in the test on S. pneumoniae PRC53, 0.25 µg/mL; in the test with S. pneumoniae R6, 0.031 µg/mL.

As to `C[C@@H](O)[C@H]1C(=O)N2C(C(=O)[O-])=C(S/C=C\c3scnc3C(=O)N(C)C)[C@H](C)[C@H]12.[Na+]` [Example 43, Sodium (1R,5S,6S)-2-[[(Z)-2-(4-N,N-dimethylcarbamoylthiazol-5-yl)ethen-1-yl]thio]-6-((1R)-1-hydroxyethyl)-1-methyl-1-carbapen-2-em-3-carboxylate], the “minimum inhibitory concentrations (MIC)” value in the test with E. coli W4680 turned out to be 4 µg/mL; in the test on H. influenzae 870 it was 0.25 µg/mL; in the test on H. influenzae PRC44, 0.125 µg/mL; in the test on H. influenzae Rd it was 0.031 µg/mL; with K. pneumoniae GN69, 4 µg/mL; in the test on S. aureus 209P JC-1 it was 0.063 µg/mL. Also, the “minimum inhibitory concentrations (MIC)” value in the test on S. pneumoniae PRC53 came to 0.063 µg/mL; with S. pneumoniae R6 it was 0.008 µg/mL.

On to `C[C@@H](O)[C@H]1C(=O)N2C(C(=O)O)=C(SCCN=CN)C[C@H]12` [IPM, imipenem, reference compound], for which the MIC was 0.125 µg/mL (≈ 0.418 µM) with E. coli W4680; 4 µg/mL (≈ 13.4 µM) in the test with H. influenzae 870; 16 µg/mL (≈ 53.4 µM) in the test with H. influenzae PRC44; 1 µg/mL (≈ 3.34 µM) with H. influenzae Rd; 0.125 µg/mL (≈ 0.418 µM) with K. pneumoniae GN69; 0.063 µg/mL (≈ 0.21 µM) with M. catarrhalis W-500. Also, the MIC in the test on S. aureus 209P JC-1 was 0.016 µg/mL (≈ 0.0534 µM); in the test on S. pneumoniae 197, 1 µg/mL (≈ 3.34 µM); in the test with S. pneumoniae PRC53, 0.125 µg/mL (≈ 0.418 µM); in the test on S. pneumoniae R6, 0.008 µg/mL (≈ 0.0267 µM).
